# Source: ChEMBL document CHEMBL1201861, “Genomics of Drug Sensitity in Cancer screening data, Wellcome Trust Sanger Institute”
# Assays:
# Assay in all cases: cells
# [1] = tested on: ETK-1; type: functional, cell-based, Homo sapiens; details: Homo sapiens, ETK-1;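 note: growth inhibition of human ETK-1 cells, read out with a cell viability assay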
# Description: SANGER: Inhibition of human ETK-1 cell growth in a cell viability assay.
# [2] = tested on: EW-18; type: functional, cell-based, Homo sapiens; details: Homo sapiens, EW-18; read-out: IC50;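 note: growth inhibition of EW-18 cells, read out by a cell viability assay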
# Description: SANGER: Inhibition of human EW-18 cell growth in a cell viability assay.
# [3] = tested on: KARPAS-45; type: functional, cell-based, Homo sapiens; details: Homo sapiens, KARPAS-45;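 note: inhibition of cell line growth, read out through a viability assay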
# Description: SANGER: Inhibition of human KARPAS-45 cell growth in a cell viability assay.
# [4] = tested on: KM12; type: functional, cell-based, Homo sapiens; details: Homo sapiens, KM12;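 note: KM12 cell growth inhibition, read out with a cell viability assay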
# Description: SANGER: Inhibition of human KM12 cell growth in a cell viability assay.
# [5] = tested on: NCI-H1770; type: functional, cell-based, Homo sapiens; details: Homo sapiens, NCI-H1770;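 note: growth inhibition of NCI-H1770 cells determined with a viability readout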
# Description: SANGER: Inhibition of human NCI-H1770 cell growth in a cell viability assay.
# [6] = tested on: SJRH30; type: functional, cell-based; details: Homo sapiens;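 note: growth inhibition of human SJRH30 cells, read out with a cell viability assay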
# Description: SANGER: Inhibition of human SJRH30 cell growth in a cell viability assay.
# [7] = tested on: TGBC1TKB; type: functional, cell-based, Homo sapiens; details: Homo sapiens, TGBC1TKB;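 note: growth inhibition of TGBC1TKB cells, read out by a cell viability assay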
# Description: SANGER: Inhibition of human TGBC1TKB cell growth in a cell viability assay.
# [8] = tested on: COLO-824; type: functional, cell-based, Homo sapiens; details: Homo sapiens, COLO-824
# Description: SANGER: Inhibition of human COLO-824 cell growth in a cell viability assay.
# [9] = tested on: COR-L88; type: functional, cell-based, Homo sapiens; details: Homo sapiens, COR-L88;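 note: growth inhibition of COR-L88 cells, read out with a cell viability assay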
# Description: SANGER: Inhibition of human COR-L88 cell growth in a cell viability assay.
# [10] = tested on: CTV-1; type: functional, cell-based, Homo sapiens; details: Homo sapiens, CTV-1;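 note: growth inhibition of the cell line, read out with a cell viability assay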
# Description: SANGER: Inhibition of human CTV-1 cell growth in a cell viability assay.
# [11] = tested on: Calu-6; type: functional, cell-based, Homo sapiens; details: Homo sapiens, Calu-6;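 note: growth of human Calu-6 cells, read out by a cell viability assay, IC50 marking inhibition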
# Description: SANGER: Inhibition of human Calu-6 cell growth in a cell viability assay.
# [12] = tested on: D283 Med; type: functional, cell-based, Homo sapiens; details: Homo sapiens, D283 Med
# Description: SANGER: Inhibition of human D-283MED cell growth in a cell viability assay.
# [13] = tested on: D-502MG; type: functional, cell-based, Homo sapiens; details: Homo sapiens, D-502MG
# Description: SANGER: Inhibition of human D-502MG cell growth in a cell viability assay.
# [14] = tested on: EKVX; type: functional, cell-based, Homo sapiens; details: Homo sapiens, EKVX;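 note: growth inhibition of human EKVX cells, read out with a cell viability assay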
# Description: SANGER: Inhibition of human EKVX cell growth in a cell viability assay.
# [15] = tested on: EW-11; type: functional, cell-based, Homo sapiens; details: Homo sapiens, EW-11;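 note: growth inhibition of human EW-11 cells, measured with a cell viability assay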
# Description: SANGER: Inhibition of human EW-11 cell growth in a cell viability assay.
# [16] = tested on: GR-ST; type: functional, cell-based, Homo sapiens; details: Homo sapiens, GR-ST
# Description: SANGER: Inhibition of human GR-ST cell growth in a cell viability assay.
# [17] = tested on: HCE-T; type: functional, cell-based, Homo sapiens; details: Homo sapiens, HCE-T;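 note: cell viability assay read-out, reporting inhibition of HCE-T cell growth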
# Description: SANGER: Inhibition of human HCE-T cell growth in a cell viability assay.
# [18] = tested on: IA-LM; type: functional, cell-based; details: Homo sapiens;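 note: cell viability assay measuring growth inhibition of human IA-LM cells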
# Description: SANGER: Inhibition of human IA-LM cell growth in a cell viability assay.
# [19] = tested on: KNS-81-FD; type: functional, cell-based, Homo sapiens; details: Homo sapiens, KNS-81-FD;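 note: growth inhibition of KNS-81-FD cells, read out with a cell viability assay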
# Description: SANGER: Inhibition of human KNS-81-FD cell growth in a cell viability assay.
# [20] = tested on: KY821; type: functional, cell-based, Homo sapiens; details: Homo sapiens, KY821;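 note: growth inhibition of human KY821 cells, read out by a cell viability assay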
# Description: SANGER: Inhibition of human KY821 cell growth in a cell viability assay.
# [21] = tested on: LB1047-RCC; type: functional, cell-based, Homo sapiens; details: Homo sapiens, LB1047-RCC;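 note: inhibition of cell growth, determined with a cell viability assay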
# Description: SANGER: Inhibition of human LB1047-RCC cell growth in a cell viability assay.
# [22] = tested on: LB831-BLC; type: functional, cell-based, Homo sapiens; details: Homo sapiens, LB831-BLC;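 note: growth inhibition of LB831-BLC cells, read out with a cell viability assay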
# Description: SANGER: Inhibition of human LB831-BLC cell growth in a cell viability assay.
# [23] = tested on: LS-1034; type: functional, cell-based, Homo sapiens; details: Homo sapiens, LS-1034
# Description: SANGER: Inhibition of human LS-1034 cell growth in a cell viability assay.
# [24] = tested on: LS-411N; type: functional, cell-based, Homo sapiens; details: Homo sapiens, LS-411N
# [25] = tested on: MFM-223; type: functional, cell-based, Homo sapiens; details: Homo sapiens, MFM-223
# Description: SANGER: Inhibition of human MFM-223 cell growth in a cell viability assay.
# [26] = tested on: MHH-PREB-1; type: functional, cell-based, Homo sapiens; details: Homo sapiens, MHH-PREB-1;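 note: cell viability assay measuring inhibition of proliferation of human MHH-PREB-1 cells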
# Description: SANGER: Inhibition of human MHH-PREB-1 cell growth in a cell viability assay.
# [27] = tested on: MLMA; type: functional, cell-based, Homo sapiens; details: Homo sapiens, MLMA;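 note: growth inhibition of MLMA cells (human), determined through a cell viability readout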
# Description: SANGER: Inhibition of human MLMA cell growth in a cell viability assay.
# [28] = tested on: MPP-89; type: functional, cell-based, Homo sapiens; details: Homo sapiens, MPP-89;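 note: growth inhibition of human MPP-89 cells, read out with a cell viability assay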
# Description: SANGER: Inhibition of human MPP-89 cell growth in a cell viability assay.
# [29] = tested on: MS-1; type: functional, cell-based, Homo sapiens; details: Homo sapiens, MS-1;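 note: growth inhibition of MS-1 cells, read out by cell viability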
# Description: SANGER: Inhibition of human MS-1 cell growth in a cell viability assay.
# [30] = tested on: NCI-H1304; type: functional, cell-based, Homo sapiens; details: Homo sapiens, NCI-H1304;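 note: growth inhibition of the cancer cell line, measured in a cell viability assay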
# Description: SANGER: Inhibition of human NCI-H1304 cell growth in a cell viability assay.
# [31] = tested on: NCI-H446; type: functional, cell-based, Homo sapiens; details: Homo sapiens, NCI-H446;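 note: growth inhibition of NCI-H446 cells determined by a cell viability assay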
# Description: SANGER: Inhibition of human NCI-H446 cell growth in a cell viability assay.
# [32] = tested on: NCI-H526; type: functional, cell-based, Homo sapiens; details: Homo sapiens, NCI-H526;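 note: growth inhibition of the human NCI-H526 cell line, measured by a cell viability assay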
# Description: SANGER: Inhibition of human NCI-H526 cell growth in a cell viability assay.
# [33] = tested on: P30-OHK; type: functional, cell-based, Homo sapiens; details: Homo sapiens, P30-OHK;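 note: growth inhibition of the P30-OHK cell line, read out with a cell viability assay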
# Description: SANGER: Inhibition of human P30-OHK cell growth in a cell viability assay.
# [34] = tested on: RERF-LC-MS; type: functional, cell-based; details: Homo sapiens;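 note: growth inhibition of human RERF-LC-MS cells, read out by a cell viability assay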
# Description: SANGER: Inhibition of human RERF-LC-MS cell growth in a cell viability assay.
# [35] = tested on: RXF 393; type: functional, cell-based, Homo sapiens; details: Homo sapiens, RXF 393;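 note: growth inhibition of human RXF 393 cells, read out with a cell viability assay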
# Description: SANGER: Inhibition of human RXF393 cell growth in a cell viability assay.
# [36] = tested on: SF-268; type: functional, cell-based, Homo sapiens; details: Homo sapiens, SF-268;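 note: growth inhibition of SF-268 cells determined with a cell viability assay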
# Description: SANGER: Inhibition of human SF268 cell growth in a cell viability assay.
# [37] = tested on: SK-N-DZ; type: functional, cell-based, Homo sapiens; details: Homo sapiens, SK-N-DZ; read-out: IC50;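 note: growth inhibition of the cancer cell line, read out through a viability assay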
# Description: SANGER: Inhibition of human SK-N-DZ cell growth in a cell viability assay.
# [38] = tested on: SNB-75; type: functional, cell-based, Homo sapiens; details: Homo sapiens, SNB-75;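 note: cell viability assay measuring growth inhibition of human SNB-75 cells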
# Description: SANGER: Inhibition of human SNB75 cell growth in a cell viability assay.
# [39] = tested on: A101D; type: functional, cell-based, Homo sapiens; details: Homo sapiens, A101D;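 note: growth inhibition of the cell line, measured with a viability assay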
# Description: SANGER: Inhibition of human A101D cell growth in a cell viability assay.
# [40] = tested on: A4-Fuk; type: functional, cell-based, Homo sapiens; details: Homo sapiens, A4-Fuk;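 note: growth inhibition of A4-Fuk cells, read out by a cell viability assay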
# Description: SANGER: Inhibition of human A4-Fuk cell growth in a cell viability assay.
# [41] = tested on: ACN; type: functional, cell-based, Homo sapiens; details: Homo sapiens, ACN;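 note: growth inhibition of the human ACN cell line, read out via cell viability testing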
# Description: SANGER: Inhibition of human ACN cell growth in a cell viability assay.
# [42] = tested on: AM-38; type: functional, cell-based, Homo sapiens; details: Homo sapiens, AM-38;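 note: growth inhibition of AM-38 cells of human origin, read out by a cell viability assay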
# Description: SANGER: Inhibition of human AM-38 cell growth in a cell viability assay.
# [43] = tested on: BB49-HNC; type: functional, cell-based, Homo sapiens; details: Homo sapiens, BB49-HNC;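 note: cell viability assay read-out, reported as inhibition of BB49-HNC cell growth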
# Description: SANGER: Inhibition of human BB49-HNC cell growth in a cell viability assay.
# [44] = tested on: Becker; type: functional, cell-based, Homo sapiens; details: Homo sapiens, Becker;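 note: growth inhibition of Becker cells, read out with a cell viability assay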
# Description: SANGER: Inhibition of human Becker cell growth in a cell viability assay.
# [45] = tested on: TE-5; type: functional, cell-based, Homo sapiens; details: Homo sapiens, TE-5;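 note: inhibition of cell growth, read out by a cell viability assay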
# Description: SANGER: Inhibition of human TE-5 cell growth in a cell viability assay.
# [46] = tested on: TE-6; type: functional, cell-based, Homo sapiens; details: Homo sapiens, TE-6;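 note: growth inhibition of TE-6 cells, read out with a cell viability assay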
# Description: SANGER: Inhibition of human TE-6 cell growth in a cell viability assay.
# [47] = tested on: UACC-62; type: functional, cell-based; details: Homo sapiens;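 note: growth inhibition of human UACC-62 cells, read out by a cell viability assay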
# Description: SANGER: Inhibition of human UACC-62 cell growth in a cell viability assay.
# [48] = tested on: VA-ES-BJ; type: functional, cell-based, Homo sapiens; details: Homo sapiens, VA-ES-BJ;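 note: growth inhibition of the VA-ES-BJ cell line, read out by a cell viability assay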
# Description: SANGER: Inhibition of human VA-ES-BJ cell growth in a cell viability assay.
# [49] = tested on: COLO-668; type: functional, cell-based, Homo sapiens; details: Homo sapiens, COLO-668
# Description: SANGER: Inhibition of human COLO-668 cell growth in a cell viability assay.
compound,measurement,setting,value
CO[C@@H]1[C@H](N(C)C(=O)c2ccccc2)C[C@H]2O[C@]1(C)n1c3ccccc3c3c4c(c5c6ccccc6n2c5c31)C(=O)NC4 [MIDOSTAURIN],IC50,[1],0.377 µM
same,IC50,[2],0.322 µM
same,IC50,[3],> 0.512 µM
same,IC50,[4],0.0928 µM
same,IC50,[5],> 0.512 µM
same,IC50,[6],> 0.512 µM
same,IC50,[7],> 0.512 µM
OC[C@H](Cc1ccccc1)Nc1nc(Oc2ccc3c(c2)CCC3)nc2c1ncn2Cc1ccc(-c2ccccc2)cc1,IC50,[8],> 10.2 µM
same,IC50,[9],> 10.2 µM
same,IC50,[10],> 10.2 µM
same,IC50,[11],> 10.2 µM
same,IC50,[12],> 10.2 µM
same,IC50,[13],> 10.2 µM
same,IC50,[14],> 10.2 µM
same,IC50,[1],> 10.2 µM
same,IC50,[15],> 10.2 µM
same,IC50,[2],> 10.2 µM
same,IC50,[16],5.51 µM
same,IC50,[17],> 10.2 µM
same,IC50,[18],5.91 µM
same,IC50,[3],> 10.2 µM
same,IC50,[4],> 10.2 µM
same,IC50,[19],> 10.2 µM
same,IC50,[20],> 10.2 µM
same,IC50,[21],> 10.2 µM
same,IC50,[22],> 10.2 µM
same,IC50,[23],> 10.2 µM
same,IC50,[24],8.51 µM
same,IC50,[25],> 10.2 µM
same,IC50,[26],> 10.2 µM
same,IC50,[27],> 10.2 µM
same,IC50,[28],> 10.2 µM
same,IC50,[29],> 10.2 µM
same,IC50,[30],> 10.2 µM
same,IC50,[5],8.9 µM
same,IC50,[31],> 10.2 µM
same,IC50,[32],> 10.2 µM
same,IC50,[33],3.56 µM
same,IC50,[34],> 10.2 µM
same,IC50,[35],> 10.2 µM
same,IC50,[36],> 10.2 µM
same,IC50,[6],> 10.2 µM
same,IC50,[37],2.23 µM
same,IC50,[38],> 10.2 µM
same,IC50,[39],> 10.2 µM
same,IC50,[40],> 10.2 µM
same,IC50,[41],6.01 µM
same,IC50,[42],> 10.2 µM
same,IC50,[43],> 10.2 µM
same,IC50,[44],> 10.2 µM
same,IC50,[45],> 10.2 µM
same,IC50,[46],> 10.2 µM
same,IC50,[7],> 10.2 µM
same,IC50,[47],> 10.2 µM
same,IC50,[48],2.57 µM
same,IC50,[49],> 10.2 µM
